Assay results from ChEMBL document CHEMBL4340512, “Discovery of novel triazolo[4,3-b]pyridazin-3-yl-quinoline derivatives as PIM inhibitors” (Eur J Med Chem, 2019).

Key:
[1] = biological target: T1, Receptor-type tyrosine-protein kinase FLT3 (Homo sapiens, UniProt P36888); experiment: Inhibition of human FLT3 using EAIYAAPFAKKK as substrate incubated for 60 mins by fluorescence based assay
T1 sequence (P36888 whole entry): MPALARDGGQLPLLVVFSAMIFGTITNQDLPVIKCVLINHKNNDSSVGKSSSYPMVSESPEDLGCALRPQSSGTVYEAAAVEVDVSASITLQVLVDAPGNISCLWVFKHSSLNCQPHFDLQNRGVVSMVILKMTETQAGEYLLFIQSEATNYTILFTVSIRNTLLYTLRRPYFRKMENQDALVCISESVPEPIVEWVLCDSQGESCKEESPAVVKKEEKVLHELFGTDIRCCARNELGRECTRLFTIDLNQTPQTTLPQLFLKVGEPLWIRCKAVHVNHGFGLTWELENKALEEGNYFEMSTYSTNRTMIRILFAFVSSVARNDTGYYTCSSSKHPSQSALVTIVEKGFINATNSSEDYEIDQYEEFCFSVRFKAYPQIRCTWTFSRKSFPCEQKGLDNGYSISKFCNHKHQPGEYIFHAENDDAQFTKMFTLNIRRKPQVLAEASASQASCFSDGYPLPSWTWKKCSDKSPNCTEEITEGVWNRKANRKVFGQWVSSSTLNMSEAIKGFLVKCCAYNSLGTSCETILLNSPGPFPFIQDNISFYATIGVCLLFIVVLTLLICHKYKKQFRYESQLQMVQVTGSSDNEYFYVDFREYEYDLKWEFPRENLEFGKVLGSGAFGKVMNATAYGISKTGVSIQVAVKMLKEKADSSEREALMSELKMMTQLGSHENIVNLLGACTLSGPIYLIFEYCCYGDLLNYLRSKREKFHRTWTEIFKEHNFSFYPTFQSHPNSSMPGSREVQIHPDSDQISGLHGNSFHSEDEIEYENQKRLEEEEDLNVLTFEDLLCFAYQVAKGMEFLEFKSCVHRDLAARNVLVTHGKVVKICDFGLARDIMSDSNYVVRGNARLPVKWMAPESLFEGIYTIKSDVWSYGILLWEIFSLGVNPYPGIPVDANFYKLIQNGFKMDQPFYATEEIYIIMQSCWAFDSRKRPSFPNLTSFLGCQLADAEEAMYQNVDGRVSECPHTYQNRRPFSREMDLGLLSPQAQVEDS

[2] = biological target: Voltage-gated inwardly rectifying potassium channel KCNH2 (Homo sapiens, UniProt Q12809)
[3] = biological target: Serine/threonine-protein kinase pim-2 (Homo sapiens, UniProt Q9P1W9); experiment: Inhibition of His tagged human recombinant PIM2 using PIM tide (ARKRRRHPSGPPTA) as substrate incubated for 1 hr by fluorescence based assay
[4] = biological target: T2, Serine/threonine-protein kinase pim-1 (Homo sapiens, UniProt P11309); experiment: Inhibition of His tagged human recombinant PIM1 using PIM tide (ARKRRRHPSGPPTA) as substrate incubated for 1 hr by fluorescence based assay
[5] = biological target: T2, Serine/threonine-protein kinase pim-1; experiment: Inhibition of PIM1 in human NCI-H1299 cells assessed as reduction in BAD phosphorylation at Ser-112 residue incubated for 4 hrs by ELISA; type: cell-based
[6] = biological target: Serine/threonine-protein kinase pim-3 (Homo sapiens, UniProt Q86V86); experiment: Inhibition of N-terminal 6-His tagged human recombinant PIM3 using PIM tide (ARKRRRHPSGPPTA) as substrate incubated for 1 hr by fluorescence based assay
[7] = Clearance in iv dosed Balb/c mouse administered as single dose measured after 0.08 to 4 hrs by HPLC/MS analysis; type: ADME, organism-based; details: in vivo
[8] = Clearance in iv dosed Balb/c mouse administered as single dose measured after 0.08 to 4 hrs by HPLC/MS analysis relative to hepatic blood flow; type: ADME, organism-based; details: in vivo
[9] = test system: PC-3; experiment: Antiproliferative activity against human PC3 cells incubated for 72 hrs by CellTiter-Glo luminescence assay; type: functional; details: PC-3, 72 h
[10] = test system: MDA-MB-231; experiment: Antiproliferative activity against human MDA-MB-231 cells incubated for 72 hrs by CellTiter-Glo luminescence assay; type: functional; details: MDA-MB-231, 72 h
[11] = test system: SK-MEL19; experiment: Antiproliferative activity against human SK-MEL-19 cells incubated for 72 hrs by CellTiter-Glo luminescence assay; type: functional; details: SK-MEL19, 72 h
[12] = test system: MV4-11; experiment: Antiproliferative activity against human MV4-11 cells incubated for 72 hrs by CellTiter-Glo luminescence assay; type: functional; details: MV4-11, 72 h

| Structure (SMILES) | IC50 [3] [nM] | IC50 [4] [nM] | EC50 ([5]; read-out: EC50) [nM] | IC50 [6] [nM] | further results |
| --- | --- | --- | --- | --- | --- |
| CN1CCC(CNc2cccc3ccc(-c4nnc5c6c(cnn45)N(C)CCO6)nc23)CC1 | 4250 | 14 | 179 | 82 | IC50 [1]: > 10000 nM; IC50 [2]: > 20000 nM |
| CCCN1CCOc2c1cnn1c(-c3ccc4cccc(NCC5CCNCC5)c4n3)nnc21 | 4010 | 12 | 800 | 60 | – |
| CN1CCOc2c1cnn1c(-c3cccc(C(=O)NCC4CCNCC4)c3)nnc21 | – | 870 | – | – | – |
| CN1CCOc2c1cnn1c(-c3cccc(-c4cccc(NCC5CCNCC5)c4)n3)nnc21 | – | 785 | – | – | – |
| CN1CCC(Nc2cccc3ccc(-c4nnc5c6c(cnn45)N(C)CCO6)nc23)CC1 | 2870 | 7 | 212 | 40 | IC50 [1]: > 10000 nM; IC50 [2]: > 20000 nM |
| CN1CCOc2c1cnn1c(-c3ccc4c(F)ccc(NCC5(F)CCNCC5)c4n3)nnc21 | 3010 | 30 | 283 | 14 | IC50 [1]: 3970 nM; clearance [7]: 9.33 mL/min/kg; IC50 [2]: > 20000 nM; CLH [8]: < 30% |
| CN1CCOc2c1cnn1c(-c3ccc4ccnc(NC5CCCCC5)c4c3)nnc21 | 1100 | 26 | 110 | 238 | IC50 [1]: > 10000 nM |
| CC(C)C[C@H](NC(=O)[C@H](Cc1ccccc1)NC(=O)c1cnccn1)B(O)O [BORTEZOMIB] | – | – | – | – | GI50 [9]: 40 nM |
| CN1CCOc2c1cnn1c(-c3ccc4cccc(NCC5(F)CCNCC5)c4n3)nnc21 | 5530 | 21 | 215 | 55 | IC50 [1]: > 10000 nM |
| O=C(NOC[C@H](O)CO)c1ccc(F)c(F)c1Nc1ccc(I)cc1F [MIRDAMETINIB] | – | – | – | – | GI50 [10]: 1000 nM |
| CN1CCOc2c1cnn1c(-c3ccc4cccc(NC(=O)C5CCNCC5)c4n3)nnc21 | 3740 | 36 | 330 | 131 | – |
| CN1CCOc2c1cnn1c(-c3ccc4cccc(NCC5CCCCC5)c4n3)nnc21 | > 1000 | 420 | – | > 10000 | – |
| CN1CCOc2c1cnn1c(-c3ccc4cccc(NCC5CCNCC5)c4c3)nnc21 | 4870 | 6 | 865 | 58 | – |
| CN1CCOc2c1cnn1c(-c3cccc(-c4cccc(NC5CCNCC5)c4)n3)nnc21 | – | 425 | – | – | – |
| CN1CCOc2c1cnn1c(C(=O)Nc3ccccc3NC3CCNCC3)nnc21 | – | > 10000 | – | – | – |
| CN1CCOc2c1cnn1c(-c3ccc4cccc(N5CCNCC5)c4n3)nnc21 | > 10000 | 200 | 5360 | 257 | – |
| CC(=O)O[C@@]12CO[C@@H]1C[C@H](O)[C@@]1(C)C(=O)[C@H](O)C3=C(C)[C@@H](OC(=O)[C@H](O)[C@@H](NC(=O)OC(C)(C)C)c4ccccc4)C[C@@](O)([C@@H](OC(=O)c4ccccc4)[C@H]21)C3(C)C [DOCETAXEL ANHYDROUS] | – | – | – | – | GI50 [11]: 2 nM; GI50 [12]: 0.5 nM |
| CN1CCOc2c1cnn1c(-c3cccc(C(=O)NCC4CCNCC4)n3)nnc21 | – | 7100 | – | – | – |
| CN1CCOc2c1cnn1c(-c3ccc4cccc(NCC5CCOCC5)c4n3)nnc21 | 6210 | 30 | 325 | 402 | – |
| O=C(CCCCCCC(=O)Nc1ccccc1)NO [VORINOSTAT] | – | – | – | – | GI50 [9]: 5000 nM |
| CC(C)N1CCOc2c1cnn1c(-c3ccc4cccc(NCC5CCNCC5)c4n3)nnc21 | 1650 | 16 | 915 | 76 | – |

| Structure (SMILES) | IC50 [3] [nM] | IC50 [4] [nM] | EC50 ([5]; read-out: EC50) [nM] | IC50 [6] [nM] | further results |
| --- | --- | --- | --- | --- | --- |
| CN1CCOc2c1cnn1c(-c3ccc4cccc(NC5CCOCC5)c4n3)nnc21 | 2470 | 25 | 322 | 358 | – |
| c1ccc(OCCN2CCOc3c2cnn2c(-c4ccc5cccc(NCC6CCNCC6)c5n4)nnc32)cc1 | 4690 | 17 | 2020 | 140 | – |
| CN1CCOc2c1cnn1c(-c3cccc(NCC4CCNCC4)c3)nnc21 | – | > 10000 | – | – | – |
| CCN1CCOc2c1cnn1c(-c3ccc4cccc(NCC5CCNCC5)c4n3)nnc21 | 1930 | 13 | 780 | 58 | – |
| CN1CCOc2c1cnn1c(-c3ccc4cccc(NC5CCNCC5)c4n3)nnc21 | 690 | 12 | 1380 | 95 | – |
| CN1CCOc2c1cnn1c(-c3ccc4cccc(N5CCC(N)CC5)c4n3)nnc21 | 2140 | 38 | 5310 | 80 | – |
| CN1CCOc2c1cnn1c(-c3ccc4cc(F)cc(NCC5(F)CCNCC5)c4n3)nnc21 | 858 | 10 | 465 | 7 | – |
| CN1CCOc2c1cnn1c(-c3ccc4c(F)c(F)cc(NCC5(F)CCNCC5)c4n3)nnc21 | 3590 | 18 | 155 | 12 | IC50 [1]: 6320 nM; clearance [7]: 3.83 mL/min/kg; IC50 [2]: > 20000 nM; CLH [8]: < 30% |
| CN1CCOc2c1cnn1c(-c3ccc4ccc(Cl)c(NCC5(F)CCNCC5)c4n3)nnc21 | 696 | 12 | 71 | 6 | IC50 [1]: > 10000 nM; IC50 [2]: 2100 nM |
| CN1CCOc2c1cnn1c(-c3ccc4cccc(NCC5CCOCC5)c4c3)nnc21 | 9940 | 20 | – | 281 | – |
| CN1CCOc2c1cnn1c(-c3ccc4cccc(NCC5CCNCC5)c4n3)nnc21 | 4260 | 14 | 700 | 17 | – |
| CN1CCOc2c1cnn1c(-c3ccc4cccc(NC5CCC(C)(C)CC5)c4n3)nnc21 | > 10000 | 92 | – | 4080 | EC50 ([5]; nci-h1299): Not Active |
| CN1CCOc2c1cnn1c(-c3ccnc(NC4CCNCC4)c3)nnc21 | – | > 10000 | – | – | – |
| CN1CCOc2c1cnn1c(-c3ccc4ccnc(NCC5CCNCC5)c4c3)nnc21 | 27 | 4 | 2510 | 6 | – |
| CN1CCOc2c1cnn1c(C(=O)Nc3ccccc3OCC3CCNCC3)nnc21 | – | 1100 | – | – | – |
| Cc1cc(NCC2(F)CCNCC2)c2nc(-c3nnc4c5c(cnn34)N(C)CCO5)ccc2c1 | > 10000 | 236 | 5960 | – | – |
| CN1CCOc2c1cnn1c(-c3ccc4cccc(NC5CCCCC5)c4n3)nnc21 | 3330 | 32 | 220 | 300 | IC50 [1]: > 10000 nM; clearance [7]: 23.7 mL/min/kg; IC50 [2]: > 20000 nM; CLH [8]: < 30% |
| CN1CCOc2c1cnn1c(C(=O)Nc3ccccc3NCC3CCNCC3)nnc21 | – | > 10000 | – | – | – |
| CN1CCOc2c1cnn1c(-c3ccc4cccc(NC5CCCCC5)c4c3)nnc21 | 8040 | 46 | 265 | 1550 | IC50 [1]: > 10000 nM; IC50 [2]: 6060 nM |
| CN1CCOc2c1cnn1c(-c3ccc4cc(Cl)cc(NCC5(F)CCNCC5)c4n3)nnc21 | 1270 | 30 | – | 1 | EC50 ([5]; nci-h1299): Not Active |
| CN1CCOc2c1cnn1c(-c3ccc4ccnc(NCC5(F)CCNCC5)c4c3)nnc21 | 122 | 7 | 200 | 26 | IC50 [1]: > 10000 nM; clearance [7]: 23.2 mL/min/kg; IC50 [2]: > 20000 nM; CLH [8]: < 30% |
